Experimental data as given in patent US4322423A, “4-Phenyl-4,5,6,7-tetrahydro-thieno(2,3-C)pyridines and salts thereof” (Boehringer Ingelheim GmbH, priority 1977, dated 1982).
Read-outs that look alike come from different tables or passages of the source.

How the values were obtained:
[1] = test system: hypothermic effect caused by reserpine; assay: reserpine-antagonism, elimination of the hypothermic effect caused by reserpine; format: in vivo; conditions: Mus musculus, mice, oral, 17 hours after 2 mg/kg i.p. reserpine
Method: A further test for determining the anti-depressant activity is the reserpine-antagonism, the elimination of the hypothermic effect caused by reserpine. The test is carried out on mice, using 5 animals per dose. 17 Hours after i.p. administration of 2 mg/kg of reserpine, the body temperature is measured peripherally at a room temperature of 19° C. Afterwards, the test substance is administered orally, and the body temperature is measured after elapse of 1, 3, 5, and 7 hours. For each measurement a medium effective dose (ED50) is determined. This is the dose at which the body temperature of the animals treated with reserpine approaches the normal temperature of the untreated controls by 50%.

[2] = test system: uptake of noradrenaline in the neurons; assay: inhibition of noradrenaline uptake, synaptosomes from homogenized isolated cerebrum of the rat; format: biochemical; conditions: ten minutes at 37° C., 50% uptake inhibition, read-out: Noradrenalin inhibition IC 50
Method: (§1) It is known that various forms of depressions cause in certain sections of the brain a deficiency of biogenetic amines, especially of noradrenaline and serotonine; the biogenetic amines may be multiplied by inhibiting the uptake in the neurons. […] The test is performed on the homogenized, isolated cerebrum of the rat. A suspension of synaptosomes thus obtained is incubated with […] noradrenaline or serotonine and various concentrations of a solution of the test substance in water for ten minutes at 37° C. After completion of the incubation, the medium is separated by filtering, and the radioactivity of the suspension of synaptosomes is measured. A control test without test substance is made simultaneously in order to determine the quantity of uptake of the radioactive amines. The quantity of the test substance in mols which suffices for inhibiting 50% of the uptake is designated as IC 50.

[3] = test system: uptake of serotonine in the neurons; assay: inhibition of serotonine uptake, synaptosomes from homogenized isolated cerebrum of the rat; format: biochemical; conditions: ten minutes at 37° C., 50% uptake inhibition, read-out: Serotinine inhibition IC 50
Method: as §1

[4] = 1 hr., read-out: Reserpine antagonism ED50 after 1 hr.
[5] = 3 hrs., read-out: Reserpine antagonism ED50 after 3 hrs.
[6] = 5 hrs., read-out: Reserpine antagonism ED50 after 5 hrs.
[7] = 7 hrs., read-out: Reserpine antagonism ED50 after 7 hrs.

SMILES | ED50 [1, 4] | ED50 [1, 5] | ED50 [1, 6] | ED50 [1, 7] | IC50 [2] | IC50 [3]
Cc1cc2c(s1)CN(C)CC2c1ccc(Br)cc1.Cl (stereo not drawn) [2,6-Dimethyl-4-(p-bromophenyl)-4,5,6,7-tetrahydro-thieno[2,3-c]pyridine hydrochloride] | 1.7 mg/kg | 2.7 mg/kg | 4.6 mg/kg | 80 mg/kg | 280 nM | 540 nM
Cc1cc2c(s1)CN(C)CC2c1ccccc1.Cl (stereo not drawn) [2,6-dimethyl-4-phenyl-4,5,6,7-tetrahydro-thieno[2,3-c]pyridine hydrochloride] | 19 mg/kg | 25 mg/kg | 80 mg/kg | 80 mg/kg | 560 nM | 80000 nM
CN1Cc2sc(Cl)cc2C(c2ccc(Cl)cc2)C1.Cl (stereo not drawn) [2-Chloro-4-(p-chloro-phenyl)-6-methyl-4,5,6,7-tetrahydro-thieno[2,3-c]pyridine hydrochloride] | 16 mg/kg | 8.5 mg/kg | 9.5 mg/kg | 10 mg/kg | 1600 nM | 5400 nM
CN1Cc2sc(Cl)cc2C(c2ccccc2)C1.Cl (stereo not drawn) [2-Chloro-4-phenyl-6-methyl-4,5,6,7-tetrahydro-thieno[2,3-c]pyridine hydrochloride] | 13 mg/kg | 30 mg/kg | 90 mg/kg | 90 mg/kg | 1400 nM | > 10000 nM
CN1Cc2sc(Br)cc2C(c2ccc(Br)cc2)C1 (stereo not drawn) [2-bromo-4-(p-bromophenyl)-6-methyl-4,5,6,7-tetrahydro-thieno[2,3-c]pyridine] | 55 mg/kg | 7.5 mg/kg | 32 mg/kg | 100 mg/kg | 1600 nM | 4100 nM
Cc1ccc(C2CN(C)Cc3sc(Br)cc32)cc1.Cl (stereo not drawn) [2-bromo-4-(p-tolyl)-6-methyl-4,5,6,7-tetrahydro thieno[2,3-c] pyridine hydrochloride] | 48 mg/kg | 80 mg/kg | 80 mg/kg | 80 mg/kg | 640 nM | 9000 nM
CN1Cc2sc(Cl)cc2C(c2ccc(Br)cc2)C1.Cl (stereo not drawn) [2-chloro-4-(4-bromophenyl)-6-methyl-4,5,6,7-tetrahydro-thieno[2,3-c] pyridine hydrochloride] | 50 mg/kg | 3 mg/kg | 4.2 mg/kg | 38 mg/kg | 1000 nM | 3500 nM
Cc1ccc(C2CN(C)Cc3sc(Cl)cc32)cc1.Cl (stereo not drawn) [2-chloro-4-(p-tolyl)-6-methyl-4,5,6,7-tetrahydro-thieno[2,3-c] pyridine hydrochloride] | 44 mg/kg | 12.5 mg/kg | 18 mg/kg | 20 mg/kg | 900 nM | > 10000 nM
